# Source: article PMC5661635, “Targeting the CXCR4/CXCL12 axis with the peptide antagonist E5 to inhibit breast tumor progression” (Signal Transduction and Targeted Therapy, 2017)
# No end group written: not given here.
# Columns and labels:
# CXCR4 = settings: cited from earlier work
# From the text: Nevertheless, challenges still exist in clinical applications. […] In addition, it is known that existing pep ...
# 4T1 tumors = test: 4T1 breast cancer model in BALB/c mice; assay type: in vivo; settings: day 33 after inoculation; E5 40 mg kg^-1 s.c. every other day; PTX 8 mg kg^-1 i.p. once a week; n=9
# Method: For animal experiments, 1×10^6 4T1 cells were orthotopically inoculated into the right fourth mammary fat pat of BALB/c mice. Seven days after inoculation, the mice were randomized in six groups (n=9 for each group): the control group, the E5 (40 mg kg^−1) group, the chemotherapeutic drug groups (cyclophosphamide (CTX, 90 mg kg^−1) or paclitaxel (PTX, 8 mg kg^−1)), and a group consisting of E5 combined with one of the drugs. E5 solution was subcutaneously injected around solid tumors every other day, and drugs were intraperitoneally injected once a week. The control tumor-bearing mice were treated an equal volume of solvent. The tumor sizes were measured every four days with a caliper. Tumor volume was calculated according to the formula: V=(a×b^2)/2, where a and b are the maximal and minimal diameter in millimeters, respectively. On day 33 after cell injection, the mice were killed by cervical dislocation. The tumors and main organs from each group were weighed immediately after dissection and preserved at −80 °C for further analysis.
# 4T1 cells = test: Drug sensitivity under CXCL12 stimulus or conditional medium (CCK-8); assay type: cell-based, murine; settings: E5 10 μM; MS-5 conditional medium or medium with 200 ng ml^-1 CXCL12; paclitaxel 4, 20, 100 nM, elemene 10, 20, 40 mg l^-1, cisplatin 2, 4, 8 μM; 24 h
# Method: Briefly, 1×10^4 4T1 cells were pre-seeded in 96-well culture plates and incubated overnight. Then, the cells were treated with 10 μM E5 in serum-free medium for 2 h, followed by the addition of either complete medium with 200 ng ml^−1 CXCL12 or conditional medium obtained from 48 h of incubation with MS-5 cells for an additional 4 h of treatment. After that, the cells were incubated the chemotherapeutic drugs paclitaxel (4, 20 and 100 nM), elemene (10, 20 and 40 mg l^−1), or cisplatin (2, 4 and 8 μM) for an additional 24 h. The 4T1 cell viability was analyzed using the CCK-8 assay. The absorbance value of 4T1 cells in the absence of drug treatment was set as 100%.
# [1] = E5 every other day in healthy BALB/c mice; cited from earlier work
# Method: (§1) The cytotoxicity of blocking CXCR4 with antagonists depends on the concentration and the cell types. For instance, CXCR4 antagonist BKT140 could induce 15–35% cell death at 4 or 8 μM. When its concentration was high as 20 μM, the cell death rate was about 60%.[35]
# [2] = tested on: multiple acute myeloid leukemia cell lines; settings: E5 below 30 μM; cited from earlier work
# Method: as §1
# HUVECs = test: CCK-8 cell viability assay; assay type: cell-based, human; settings: E5 concentrations up to 100 μM, 24 h
# [3] = in vivo; cited from earlier work
compound,measurement,setting,value
"c1cc(CN2CCCNCCNCCCNCC2)ccc1CN1CCCNCCNCCCNCC1 [AMD3100, Plerixafor]",agonist activity,CXCR4,weak partial agonist activity
"CC(=O)O[C@H]1C(=O)[C@@]2(C)[C@H]([C@H](OC(=O)c3ccccc3)[C@]3(O)C[C@H](OC(=O)[C@H](O)[C@@H](NC(=O)c4ccccc4)c4ccccc4)C(C)=C1C3(C)C)[C@]1(OC(C)=O)CO[C@@H]1C[C@@H]2O [PTX, paclitaxel]",effect on tumor weight compared with the control group,4T1 tumors,did not show a significant inhibitory effect
GGRSFFLLRRIQGCRFRNTVDD [E5],"effect on cytotoxic effects of paclitaxel, elemene and cisplatin to 4T1",4T1 cells,could enhance the cytotoxic effects
same,"side effects (organs weight, serum clinical parameters, H&E of heart, kidney, lung, spleen)",[1],did not show detectable side effects
same,direct induction of cell death,[2],did not induce cell death directly
same,cytotoxicity to HUVECs,HUVECs,did not show obvious cytotoxicity
LY2510924,half-life,[3],3 to 5 h
